According to paper PMC3235552, “Fragment library screening reveals remarkable similarities between the G protein-coupled receptor histamine H4 and the ion channel serotonin 5-HT3A” (Bioorganic & Medicinal Chemistry Letters, 2011):
Marks after values point to notes of the source that are not given here.

Experiments:
human H4R [1] = biological target: T1, human H4R (Homo sapiens, UniProt Q9H3N8); experiment: H4R radioligand displacement of [3H]histamine, HEK293 membranes; format: binding; parameters: expressed in transfected cells; host or cells: HEK293T (main text: HEK293), transient transfection with polyethyleneimine; conditions: for Affinity (pKi) H4R: displacement of [3H]histamine, membranes of HEK293 cells transiently expressing human H4R, mean ± SEM, at least three measurements, n.a. = non active
T1 sequence (Q9H3N8 whole entry, the tested form may be a part): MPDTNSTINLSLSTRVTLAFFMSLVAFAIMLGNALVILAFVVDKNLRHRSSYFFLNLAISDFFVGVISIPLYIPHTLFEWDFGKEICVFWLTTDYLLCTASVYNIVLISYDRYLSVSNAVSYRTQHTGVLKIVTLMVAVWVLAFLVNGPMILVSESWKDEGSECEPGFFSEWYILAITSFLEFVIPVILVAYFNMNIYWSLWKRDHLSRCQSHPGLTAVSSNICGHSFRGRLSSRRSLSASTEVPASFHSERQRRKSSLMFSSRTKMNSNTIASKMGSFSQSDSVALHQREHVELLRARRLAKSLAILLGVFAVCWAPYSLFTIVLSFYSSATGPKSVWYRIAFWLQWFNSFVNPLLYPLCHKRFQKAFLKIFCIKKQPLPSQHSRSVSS
Experimental: For the H4R fragment screen a radioligand displacement study was performed at a 10 μM fragment concentration. Hits were assigned when the fragment displaced 50% or more of the radioligand, resulting in 56 hits (hit rate: 6%). Radioligand binding was measured by displacement of [^3H]histamine using membranes of HEK293 cells transiently expressing the human H4R.[17] For the hit compounds, affinities were determined by subsequent radioligand displacement studies.
The H4R radioligand displacement screen was performed on homogenized HEK293T cells transiently expressing the human H4R. To this end, cells were transfected with 1.25 µg H4R plasmid per million cells using the 25-kDa linear polyethyleneimine. Two days after transfection, cells were collected, washed in PBS, and stored as pellets at -20 °C. Pellets were dissolved in binding buffer and homogenized using a teflon/glass followed by sonification for 3s. Cell homogenates were incubated in 96 well plates with 10µM (final) fragment and 10nM [^3H]-histamine (13.4 Ci/mmol, Perkin Elmer) and for 1.5 hours at room temperature on a table shaker (750rpm). Incubations were terminated by rapid filtration through polyethyleneimene-coated GF/C (Perkin Elmer) filter plates. Bound radioactivity was quantified in a Wallac microbeta counter (Perkin Elmer).

human 5-HT3AR = biological target: T2, human 5-HT3AR (Homo sapiens, UniProt P46098); experiment: 5-HT3AR radioligand displacement of [3H]granisetron, HEK293 membranes; format: binding; conditions: for Affinity (pKi) 5-HT3AR: displacement of [3H]granisetron, membranes of HEK293 cells expressing human 5-HT3AR, mean ± SEM, at least two measurements, n.a. = non active
T2 construct: transfected with the human 5-HT3A subunit (PDB ID: P46098) in pcDNA3.1; expressed in transfected cells; cDNA in pcDNA3.1
T2 sequence (P46098 24-478): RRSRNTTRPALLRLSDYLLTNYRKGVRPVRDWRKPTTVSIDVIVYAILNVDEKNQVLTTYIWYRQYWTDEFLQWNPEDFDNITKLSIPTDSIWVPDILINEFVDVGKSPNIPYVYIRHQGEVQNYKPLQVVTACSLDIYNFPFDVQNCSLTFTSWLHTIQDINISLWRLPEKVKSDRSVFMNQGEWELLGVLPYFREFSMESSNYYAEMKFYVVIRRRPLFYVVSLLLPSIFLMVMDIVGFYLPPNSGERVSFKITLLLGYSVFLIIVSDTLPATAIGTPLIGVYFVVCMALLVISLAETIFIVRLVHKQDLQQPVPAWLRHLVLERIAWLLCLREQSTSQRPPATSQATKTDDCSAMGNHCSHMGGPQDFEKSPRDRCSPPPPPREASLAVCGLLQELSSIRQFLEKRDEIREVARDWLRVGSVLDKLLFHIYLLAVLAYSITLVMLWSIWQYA
Experimental: For the 5-HT3AR we performed a high throughput functional fragment screen[18] using a fluorescent readout (Flex Station) applying a fluorescent membrane potential dye. […] From this fragment screening we identified 70 hits for the 5-HT3A receptor (hit rate: 7%). Fragments were screened at a concentration of 100 μM using stably expressed human 5-HT3AR in HEK293 cells. Binding affinities of hits were determined using radioligand binding studies measuring [^3H]granisetron binding using membranes of HEK293 cells expressing the human 5-HT3AR.[18]
5-HT3AR were expressed in HEK293 cells transfected with the human 5-HT3A subunit ([…]: P46098) in pcDNA3.1 (Invitrogen Ltd., Paisley, UK). Stably expressing cells were clonally selected with the addition of the G-418 (Sigma Aldrich Company ltd., Dorset, UK). Cells were routinely grown in 90 mm culture dishes containing Dubelco’s Modified Eagle’s Medium DMEM / Glutamax (Gibco, Invitrogen Ltd.) and passaged when 90% confluency was reached.
[picture] For radioligand binding HEK293 cells at 90% confluency were scraped into 1 ml of ice-cold HEPES buffer (10 mM, pH 7.4) and frozen. After thawing, they were washed with HEPES buffer and homogenised using a fine-bore syringe. 50 µl of cell membranes were incubated in 0.5 ml HEPES buffer containing 0.7 nM [^3H]granisetron (~ Kd) and differing concentrations of the test compound. Competition binding (8 point) was performed on at least three separate plates of transfected cells. Non-specific binding was determined using 1 mM quipazine. Reactions were incubated for at least 24 h at 4°C, to allow compounds with slow kinetics to equilibrate. Incubations were terminated by vacuum filtration using a Brandel cell harvester (Alpha Biotech Ltd., London, UK) onto GF/B filters pre-soaked in 0.3 % polyethyleneimine. Radioactivity was determined by scintillation counting using a Beckman BCLS6500 (Fullerton, California, USA). Data were fit according to the equation:
where L is the concentration of ligand present; BL is the binding in the presence of ligand concentration L; Bmin is the binding when L = 0; Bmax is the binding when L=∞, L50 is the concentration of L which gives a binding equal to (Bmax + Bmin)/2; and nH is the Hill coefficient. Ki values were estimated from IC50 values using the Cheng-Prusoff equation^5
where Ki is the equilibrium dissociation constant for binding of the unlabeled antagonist, IC50 is the concentration of antagonist that blocks half the specific binding, [L] is the free concentration of radioligand and Kd is the equilibrium dissociation constant of the radioligand.

human H4R [2] = biological target: T1, human H4R; experiment: H4R radioligand binding, membranes of SK-N-MC cells; parameters: expressed in transfected cells; conditions: membranes of SK-N-MC cells transiently expressing human H4R; mean ± SEM, at least three measurements
H4R = biological target: H4R; parameters: method as in PMID 18983139, PMID 19413570; conditions: Abbott H4R ligands; cited from earlier work

SMILES	Affinity (pKi) H4R (human H4R [1])	Affinity (pKi) 5-HT3AR (human 5-HT3AR)	also measured
c1cncc(Cc2c[nH]cn2)c1 [compound 1]	7.0 ± 0.1	–	–
c1ccc(CNCCc2c[nH]cn2)cc1 [compound 2]	6.2 ± 0.1	–	–
CN1CCN(c2cc(-c3ccccc3)ncn2)CC1 [compound 3]	6.7 ± 0.0	–	–
Clc1ccc(C2CCNC2)cc1 (stereo not shown) [compound 4]	–	6.1 ± 0.2	–
Nc1ccc2cc3ccccc3nc2c1 [compound 5]	–	6.0 ± 0.0	–
N=C(N)NCCCc1ccccc1 [compound 6]	–	6.1 ± 0.1	–
CN1CCN(c2ccc3cc(Cl)ccc3n2)CC1 [compound 7]	6.2 ± 0.0	6.6 ± 0.3	affinities for 5-HT3R and H4R compared (human 5-HT3AR; from affinities of Table 1): comparable affinities
CN1CCN(c2nc3ccccc3nc2O)CC1 [compound 8]	7.2 ± 0.0	7.9 ± 0.3	affinities for 5-HT3R and H4R compared (human 5-HT3AR; from affinities of Table 1): comparable affinities
CN1CCC(=Cc2nc3cc(Cl)ccc3[nH]2)CC1 [compound 9]	–	8.8 ± 0.1	Affinity (pKi) H4R (human H4R [2]): 6.1 ± 0.1 ^b; selectivity for 5-HT3R over H4R (human 5-HT3AR; from affinities of Table 1): 500 fold
CN1CCN(c2cc(-c3ccccc3)nc(N)n2)CC1 [compound 10]	8.2 ± 0.1	5.9 ± 0.1	selectivity for H4R over 5-HT3R (human H4R [1]; from affinities of Table 1): 200 fold
c1nc(CC2CCCCC2)c[nH]1 [compound 11]	–	5.9 ± 0.3	Affinity (pKi) H4R (human H4R [2]): 6.2 ± 0.1 ^b; affinities for 5-HT3R and H4R compared (human 5-HT3AR; from affinities of Table 1): comparable affinities
Nc1nc2c(c(N3CCNCC3)n1)CCCc1ccccc1-2 [compound 13]	–	–	H4R pKi (H4R): 7.1
